Measurements reported in US8513271B2, “Pyrimidine compounds as delta opioid receptor modulators” (Janssen Pharmaceutica, NV, priority 2009, dated 2013).
Several values for one entry are separate records, joined by “and”; a condition that tells them apart may be missing. Equal entries are not always repeated. Where two headings read alike, the source gives them in different places.

Tests used:
delta opioid receptor [1] = biological target: T1, delta opioid receptor (Mus musculus, UniProt P32300); assay: NG108-15, 24-well delta opioid receptor binding assay
T1 construct: NG108-15 cell membranes were purchased from Applied Cell Sciences (Rockville, Md.); host or cells: NG108-15 cell membranes
T1 sequence (P32300 whole entry): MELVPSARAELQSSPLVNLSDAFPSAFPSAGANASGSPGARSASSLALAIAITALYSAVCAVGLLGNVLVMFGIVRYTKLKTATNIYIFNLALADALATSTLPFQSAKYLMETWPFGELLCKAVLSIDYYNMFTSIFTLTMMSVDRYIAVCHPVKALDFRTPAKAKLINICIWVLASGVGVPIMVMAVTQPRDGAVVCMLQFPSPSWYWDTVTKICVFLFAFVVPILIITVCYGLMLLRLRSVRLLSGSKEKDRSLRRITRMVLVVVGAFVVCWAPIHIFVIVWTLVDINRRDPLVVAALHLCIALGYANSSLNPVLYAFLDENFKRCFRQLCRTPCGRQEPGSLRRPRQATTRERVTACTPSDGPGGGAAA

delta opioid receptor [2] = biological target: T1, delta opioid receptor; assay: [35S]GTPγS binding assay in NG108-15 cell membranes (delta opioid functional assay), 200 nM screen; format: biochemical; details: NG108-15 cell membranes; for EC50 / GTPγS δ-RelEfficacy @200 nM: averages if tested more than once; for GTPγS δ-opioid receptor Rel Efficacy: relative efficacy from dose response; for GTPγS δ-RelEfficacy @200 nM: 200 nM test compound, relative to calculated max of SNC80 dose response curve
mu opioid receptor = biological target: T2, mu opioid receptor (Rattus norvegicus, UniProt P33535); assay: Rat brain mu opioid receptor binding assay; details: rat forebrain, [3H]DAMGO ligand
T2 construct: the forebrains were homogenized in Tris buffer in a Teflon®-glass homogenizer; from tissue; host or cells: forebrain of male Wistar rats, particulate (membrane) preparation
T2 sequence (P33535 whole entry): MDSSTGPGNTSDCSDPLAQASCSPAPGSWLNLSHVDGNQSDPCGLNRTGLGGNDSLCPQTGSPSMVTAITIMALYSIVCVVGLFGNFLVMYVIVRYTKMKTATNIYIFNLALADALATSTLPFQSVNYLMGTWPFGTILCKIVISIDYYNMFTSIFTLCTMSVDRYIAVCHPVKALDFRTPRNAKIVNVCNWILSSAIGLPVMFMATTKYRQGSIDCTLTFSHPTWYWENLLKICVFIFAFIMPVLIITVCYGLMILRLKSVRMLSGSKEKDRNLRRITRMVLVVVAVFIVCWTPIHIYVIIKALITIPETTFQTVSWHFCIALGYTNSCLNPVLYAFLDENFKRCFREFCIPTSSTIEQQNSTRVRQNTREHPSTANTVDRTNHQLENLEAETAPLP

[3] = biological target: hMOR (mu opioid receptor) (Homo sapiens, UniProt P35372); assay: [35S]GTPγS binding assays in CHO-hMOR cell membranes (mu opioid functional assay); format: biochemical; details: for inhibition at 10 µM: read-out: GTPγS μ-opioid receptor % Inh @10 μM
Sequence of hMOR (mu opioid receptor) (P35372 whole entry, looked up): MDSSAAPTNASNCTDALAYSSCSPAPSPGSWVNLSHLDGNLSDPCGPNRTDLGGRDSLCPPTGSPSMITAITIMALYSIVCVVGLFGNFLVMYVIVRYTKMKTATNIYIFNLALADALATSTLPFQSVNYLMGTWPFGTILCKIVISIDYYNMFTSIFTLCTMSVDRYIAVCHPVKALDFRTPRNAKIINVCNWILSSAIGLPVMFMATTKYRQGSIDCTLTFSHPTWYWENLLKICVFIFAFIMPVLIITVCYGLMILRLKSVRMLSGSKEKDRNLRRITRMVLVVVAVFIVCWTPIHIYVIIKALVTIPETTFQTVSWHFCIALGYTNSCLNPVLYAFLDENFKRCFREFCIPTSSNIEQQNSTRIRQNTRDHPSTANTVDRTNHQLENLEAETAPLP

[4] = test system: CFA-induced paw radiant heat hypersensitivity; assay: CFA-induced paw radiant heat hypersensitivity; format: in vivo, rat; details: Rattus norvegicus, po
delta opioid receptor [5] = biological target: T3, delta opioid receptor (Rattus norvegicus, UniProt P33533); assay: Rat brain delta opioid receptor binding assay; details: δ-binding (Naltrindole ligand) Ki, rat forebrain, [3H]naltrindole ligand
T3 construct: the forebrains were homogenized in Tris buffer in a Teflon®-glass homogenizer; from tissue; host or cells: forebrain of male Wistar rats, particulate (membrane) preparation
T3 sequence (P33533 whole entry): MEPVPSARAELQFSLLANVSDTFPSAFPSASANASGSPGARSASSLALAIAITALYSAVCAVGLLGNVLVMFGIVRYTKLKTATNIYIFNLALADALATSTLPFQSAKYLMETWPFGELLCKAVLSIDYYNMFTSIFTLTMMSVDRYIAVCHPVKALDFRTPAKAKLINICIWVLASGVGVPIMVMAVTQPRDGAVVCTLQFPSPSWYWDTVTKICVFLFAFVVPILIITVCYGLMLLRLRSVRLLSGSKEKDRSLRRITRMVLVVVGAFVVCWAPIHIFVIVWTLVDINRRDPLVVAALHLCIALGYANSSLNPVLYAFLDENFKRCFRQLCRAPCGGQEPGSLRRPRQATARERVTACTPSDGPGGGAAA

[6] = test system: acetic acid-induced abdominal stretches; assay: Mouse graded abdominal irritant test (GrAIT); format: in vivo; details: 30 mg/kg s.c., 10% Solutol, 30 min pretreatment
[7] = GTPγS δ-opioid receptor EC50 (μM)
[8] = 1 h, read-out: maximum % reversal @ time (min), rat, 100 mg/kg p.o., 0.5% HPMC, @ 60 min
[9] = 1 h, read-out: maximum % reversal @ time (min), rat, 30 mg/kg p.o., 0.5% HPMC, @ 60 min
[10] = read-out: GTPγS δ-opioid receptor EC50
[11] = CHO-hMOR cell membranes, read-out: GTPγS μ-opioid receptor EC50
[12] = 0.5 h, read-out: maximum % reversal @ time (min), rat, 30 mg/kg p.o., 0.5% HPMC, @ 30 min

| SMILES | EC50 (delta opioid receptor [2]; [7]) | GTPγS δ-opioid receptor Rel Efficacy (delta opioid receptor [2]) | EC50 [3] [nM] | inhibition at 10 µM [3] [%] | GTPγS δ-RelEfficacy @200 nM (delta opioid receptor [2]) | further results |
| --- | --- | --- | --- | --- | --- | --- |
| COc1ccc(Oc2nc(-c3cncc(C#N)c3)ncc2NC[C@@H]2CCCN2)cc1 [Cpd 69] | 0.0085 µM | 1.004 | > 10000 | 22.8 | – | Ki (delta opioid receptor [1]): 0.139 nM; Ki (mu opioid receptor; μ-binding Ki): 196 nM; inhibition in vivo at 100 mg/kg [4, 8]: 10.1%; inhibition in vivo at 100 mg/kg ([4]; 1 h, read-out: maximum % reversal @ time (min), rat, 100 mg/kg p.o., 0.5% HPMC, @ 60 min, Algos (contract lab) study): 55.7%; inhibition in vivo at 100 mg/kg ([4]; 3 h, read-out: maximum % reversal @ time (min), rat, 100 mg/kg p.o., 0.5% HPMC, @ 180 min, Algos (contract lab) study): 65.4%; Ki (delta opioid receptor [5]): 4.1 nM |
| COc1ccc(Oc2nc(-c3cncc(C)c3)ncc2NC[C@@H]2CCCN2)cc1 [Cpd 253] | 0.0168 µM | 0.997 | – | – | – | inhibition in vivo at 30 mg/kg [4, 9]: 75.9% |
| COc1ccc(Oc2nc(-c3cncc(OC)c3)ncc2NC[C@@H]2CCCN2)cc1 [Cpd 68] | 0.031 µM | 0.912 | – | 11.5 | – | Ki (mu opioid receptor; μ-binding Ki): 465 nM; Ki (delta opioid receptor [5]): 2 nM |
| COc1ccc(Oc2nc(-c3cncc(C#N)c3)ncc2NC[C@@H]2C[C@@H](F)CN2)cc1 [Cpd 134] | 0.004 µM | 1.087 | 2780 | 1 | – | Ki (delta opioid receptor [1]): 0.0481 nM; Ki (mu opioid receptor; μ-binding Ki): 27 nM |
| COc1ccc(Oc2nc(-c3cncc(C#N)c3)ncc2NC[C@@H]2CCCN2)cc1F [Cpd 132] | 0.015 µM | 1.042 | 9280 | 9.4 | – | Ki (delta opioid receptor [1]): 0.4 nM; Ki (mu opioid receptor; μ-binding Ki): 61 nM |
| COc1ccc(Oc2nc(-c3ccc(F)nc3)ncc2NC[C@@H]2CCCN2)cc1 [Cpd 25] | – | – | – | – | – | Ki (mu opioid receptor; read-out: μ-binding Ki): 616 nM; Ki (delta opioid receptor [5]): 0.308 nM; # abdominal stretches (compound) [6]: 12.3 |
| COc1ccc(Oc2nc(-c3cncc(SC)c3)ncc2NC[C@@H]2C[C@@H](F)CN2)cc1 [Cpd 234] | 0.034 µM | 0.987 | – | 7.29 | 0.847 | – |
| COc1ccc(Oc2nc(-c3cccnc3)ncc2N2CCNC[C@@H]2C)cc1 [Cpd 354] | 0.026 µM | 1.050 | – | – | – | inhibition in vivo at 30 mg/kg [4, 9]: 24.7% |
| COc1ccc(Oc2nc(-c3cncc(OC)c3)ncc2N[C@H]2CCNC2)cc1 [Cpd 256] | 0.034 µM | 1.004 | – | 6.2 | – | – |
| COc1ccc(Oc2nc(-c3cncc(F)c3)ncc2NC[C@@H]2CCCN2)cc1 [Cpd 54] | – | – | – | – | – | Ki (delta opioid receptor [1]): 0.188 nM; Ki (mu opioid receptor; read-out: μ-binding Ki): 217 nM; inhibition in vivo at 100 mg/kg [4, 8]: 17.8%; inhibition in vivo at 100 mg/kg ([4]; 3 h, read-out: maximum % reversal @ time (min), rat, 100 mg/kg p.o., 0.5% HPMC, @ 180 min): 32.7%; Ki (delta opioid receptor [5]): 0.33 nM |
| COc1ccc(Oc2nc(-c3cncc(SC)c3)ncc2N[C@H]2CCCNC2)cc1 [Cpd 252] | 0.025 µM | 1.007 | – | 2.48 | – | – |
| COc1ccc(Oc2nc(-c3cccnc3)ncc2N2CCNC(C)(C)C2)cc1 [Cpd 355] | – | 1.002 | – | – | – | EC50 (delta opioid receptor [2]; [10]): 0.022 µM; GTPγS μ-opioid receptor % Inh @10 μM ([3]; 10 μM, CHO-hMOR cell membranes, inhibition of agonist-stimulated GTPγS binding): 0.000%; EC50 [3, 11]: 243 nM |
| COc1ccc(Oc2nc(-c3cncc(C#N)c3)ncc2N2CCNC(C)C2)cc1 (racemic) [Cpd 343] | 0.001 µM | 1.105 | 1980 | 7.29 | 0.985 | – |
| COc1ccc(Oc2nc(-c3cncc(C#N)c3)ncc2N2CCNC[C@@H]2C)cc1 [Cpd 345] | 0.001 µM | 1.089 | 1930 | 0 | 0.989 | – |
| CCOc1ccc(Oc2nc(-c3cncc(F)c3)ncc2NC[C@@H]2CCCN2)cc1 [Cpd 106] | 0.027 µM | 1.019 | > 10000 | 17 | – | Ki (mu opioid receptor; μ-binding Ki): 42 nM; Ki (delta opioid receptor [5]): 6 nM |
| COc1ccc(Oc2nc(-c3cncc(C)c3)ncc2NC[C@@H]2C[C@@H](F)CN2)cc1 [Cpd 238] | 0.008 µM | 0.966 | – | – | – | inhibition in vivo at 30 mg/kg [4, 9]: 39.5% |
| COc1ccc(Oc2nc(-c3cncc(OC)c3)ncc2NC[C@@H]2C[C@@H](F)CN2)cc1 [Cpd 235] | 0.00733 µM | 0.953 | – | – | 0.962 | inhibition in vivo at 30 mg/kg [4, 9]: 43.7% |
| COc1ccc(Oc2nc(-c3cccnc3)ncc2N2CCNCC2)cc1 [Cpd 327, 4-(4-Methoxy-phenoxy)-5-piperazin-1-yl-2-pyridin-3-yl-pyrimidine] | 0.0527 µM | 1.037 | – | 4.26 | 0.471 | ED50 ([4]; 1 h): 14.3 mg/kg; inhibition in vivo at 30 mg/kg [4, 9]: 102% |
| COc1ccc(Oc2nc(-c3cncc(SC)c3)ncc2N[C@H]2CCNC2)cc1 [Cpd 255] | 0.0464 µM | 0.997 | – | 17.1 | – | – |
| COc1ccc(Oc2nc(-c3cccnc3)ncc2N2CCCNCC2)cc1 [Cpd 336] | 0.0502 µM | 1.009 | – | 17.1 | 0.830 | inhibition in vivo at 30 mg/kg [4, 12]: 23.4% |
| COc1ccc(Oc2nc(-c3cccnc3)ncc2N[C@H]2CCCNC2)cc1 [Cpd 236] | 0.017 µM | 1.042 | – | 6.2 | 1.026 | – |
| COc1ccc(Oc2nc(-c3cncc(C#N)c3)ncc2NC[C@@H]2CCCN2)c(F)c1F [Cpd 101] | – | – | – | 16.6 | – | EC50 (delta opioid receptor [2]; [10]): 0.103 µM; Ki (mu opioid receptor; μ-binding Ki): 58 nM; EC50 [3, 11]: > 10000 nM; Ki (delta opioid receptor [5]): 7 nM |
| COc1ccc(Oc2nc(-c3cncc(C)c3)ncc2N2CCNCC2)cc1 [Cpd 351] | 0.0249 µM and 0.034 µM | 1.036 and 1.056 | – | – | – | inhibition in vivo at 30 mg/kg [4, 12]: 9.8% |
| COc1ccc(Oc2nc(-c3cncc(OC)c3)ncc2N2CCCNCC2)cc1 [Cpd 346] | 0.047 µM | 1.031 | – | – | – | inhibition in vivo at 30 mg/kg [4, 12]: 37% |
| COc1ccc(Oc2nc(-c3cccnc3)ncc2N2CCN[C@H](C)C2)cc1 [Cpd 357, 4-(4-Methoxy-phenoxy)-5-[3-(R)-methyl-piperazin-1-yl]-2-pyridin-3-yl-pyrimidine] | 0.005 µM | 0.929 | 1830 | 11.5 | – | – |
| COc1ccc(Oc2nc(-c3cncc(SC)c3)ncc2NC[C@@H]2CCCN2)cc1 [Cpd 107, [4-(4-Methoxy-phenoxy)-2-(5-methylsulfanyl-pyridin-3-yl)-pyrimidin-5-yl]-pyrrolidin-2-(S)-ylmethyl-amine] | 0.0213 µM | 0.957 | 5100 | 4.05 | 1.046 | Ki (mu opioid receptor; μ-binding Ki): 39 nM; ED50 ([4]; 2 h): 32 mg/kg; inhibition in vivo at 100 mg/kg ([4]; 2 h, read-out: maximum % reversal @ time (min), rat, 100 mg/kg p.o., 0.5% HPMC, @ 120 min): 52.8%; Ki (delta opioid receptor [5]): 1 nM |
